From PMC4549746, “Zearalenone in the Intestinal Tissues of Immature Gilts Exposed per os to Mycotoxins” (Toxins, 2015)
“And” between values parts separate entries of the source, which are not always exact repeats. Equal values may be shown once. Read-outs that look alike come from different tables or passages of the source.

Experiment: ZEN concentrations and carryover factor in intestinal tissues and liver of pre-pubertal gilts exposed per os (HPLC)
Type: in vivo
Settings: 40 μg/kg BW daily per os; for concentration at 4 weeks / concentration at 5 weeks / concentration at 1 week / concentration at 2 weeks / concentration at 3 weeks / concentration at 6 weeks: female, pig, oral
Method: The animals were divided into an experimental group (E, n = 18) and a control group (C, n = 21). Group E animals were orally administered ZEN at 40 μg/kg BW. Group C pigs were fed a placebo. The animals were fed complete diets in a restricted feeding regimen (Table 1). The daily dose of ZEN (40 µg/kg BW) was administered to each animal individually, which corresponds to exposure to 957–1014 µg ZEN/kg of a complete diet, depending on daily feed intake. Zearalenone was biosynthesized, purified and standardized by the Department of Chemistry of the Poznań University of Life Sciences. The experiment covered a period of 42 days. The mycotoxin was administered per os daily, in gelatine capsules before the morning feeding. The ZEN dose was adjusted to the body weight of the experimental animals. The mycotoxin was administered in capsules to prevent problems associated with uneven feed intake. Mycotoxin samples were diluted in 300 μL of 96% ethyl alcohol (96% ethyl alcohol, SWW 2442-90, Polskie Odczynniki Chemiczne SA, Gliwice, Poland) to the required dose level (based on body weight). Final solutions were stored at room temperature for 12 h to evaporate the solvent. The animals were weighed every 7 days to update mycotoxin doses for each gilt. Three animals from the experimental group and the control group each were sacrificed on Days 1, 7, 14, 21, 28, 35 and 42 (a total of 6 gilts in each week of exposure), excluding day 1, when only 3 control group animals were scarified. Every week, tissue samples were collected from the porcine gastrointestinal tract (duodenum, first and middle sections, jejunum, ileum, cecum, ascending colon, transverse colon, descending colon, middle section, and the liver, left lobe). Tissue samples were collected from the whole intestinal cross-sections.
Post-mortem tissue samples were collected from the duodenum, jejunum, ileum, cecum, ascending colon, transverse colon, descending colon and the liver after rinsing with phosphate buffer. Pure tissues were stored at −80 °C until shredding and extraction.
Tissue samples (2 g) were homogenized with 9 cm^3 of methanol for 4 min; they were transferred to centrifuge tubes with a minimal amount of the sediment, and the remainder was combined with 5 cm^3 of methanol and repeatedly homogenized. The extracts were combined and centrifuged for 10 min. The supernatant was transferred to a graduated test tube; its volume was read from the scale, and it was evaporated under a stream of nitrogen at a temperature of 60 °C to 0.1–0.2 cm^3 of water. The evaporated product was combined with 2 cm^3 of deionized water, 2 cm^3 of 0.2 M sodium acetate and 500 µL of […] solution. After 16 h of incubation at 37 °C, the reaction was stopped by adding 0.5 cm^3 of acetonitrile. The mixture was quantitatively transferred to a centrifuge tube; it was combined with 10 cm^3 of deionized water and centrifuged for 10 min at 3500 rpm. The supernatant was applied to the Zearala-Test™ column at the rate of 1–2 drops per second. Mycotoxins were eluted from the column with 1.5 mL of methanol; the solvent was evaporated, and the residue was reconstituted with 1 mL of methanol for HPLC analysis.
The concentrations of ZEN and its derivatives were determined by HPLC with the use of the Waters 2695 Separations Module, Waters 2475 Multi λ Fluorescence Detector and Waters 2996 Array Detector. Excitation and emission wavelengths were 274 and 440 nm, respectively. The reverse-phase column was C-18 Nova Pak (3.9 × 150 mm), and the mobile phase was acetonitrile-water-methanol (46:46:8, v/v/v) at a flow rate of 0.5 mL·min^−1. The mycotoxins were quantified by measuring the […] of the peaks based on the relevant calibration curves (correlation coefficient of 0.9996 for ZEN, 0.9989 for α-ZEL and 0.9976 for β-ZEL). Detection limits were determined at 0.001 µg·g^−1 for ZEN, 0.003 µg·g^−1 for α-ZEL and 0.002 µg·g^−1 for β-ZEL. […]

[1] = Week I of exposure, total ZEN dose 280 µg/kg BW
[2] = Week II of exposure, total ZEN dose 560 µg/kg BW
[3] = Week III of exposure, total ZEN dose 840 µg/kg BW
[4] = Week IV of exposure, total ZEN dose 1120 µg/kg BW
[5] = Week V of exposure, total ZEN dose 1400 µg/kg BW
[6] = Week VI of exposure, total ZEN dose 1680 µg/kg BW

C[C@H]1CCCC(=O)CCC/C=C/c2cc(O)cc(O)c2C(=O)O1 [ZEN, zearalenone]
Carryover Factor (CF), Ascending Colon [1]: 0.0054
Carryover Factor (CF), Cecum [1]: 0.0162
Carryover Factor (CF), Descending Colon [1]: 0.0167
Carryover Factor (CF), Duodenum [1]: 0.031
Carryover Factor (CF), Ileum [1]: 0.016
Carryover Factor (CF), Jejunum [1]: 0.035
Carryover Factor (CF), Liver [1]: 0.0225
Carryover Factor (CF), Transverse Colon [1]: 0.0049
Carryover Factor (CF), Ascending Colon [2]: 0.0028
Carryover Factor (CF), Cecum [2]: 0.0075
Carryover Factor (CF), Descending Colon [2]: 0.0121
Carryover Factor (CF), Duodenum [2]: 0.022
Carryover Factor (CF), Ileum [2]: 0.009
Carryover Factor (CF), Jejunum [2]: 0.035
Carryover Factor (CF), Liver [2]: 0.0139
Carryover Factor (CF), Transverse Colon [2]: 0.0082
Carryover Factor (CF), Ascending Colon [3]: 0.0037
Carryover Factor (CF), Descending Colon [3]: 0.0090
Carryover Factor (CF), Duodenum [3]: 0.014
Carryover Factor (CF), Ileum [3]: 0.008
Carryover Factor (CF), Jejunum [3]: 0.016
Carryover Factor (CF), Liver [3]: 0.0154
Carryover Factor (CF), Transverse Colon [3]: 0.0046
Carryover Factor (CF), Ascending Colon [4]: 0.0042
Carryover Factor (CF), Cecum [4]: 0.0030
Carryover Factor (CF), Descending Colon [4]: 0.1830
Carryover Factor (CF), Duodenum [4]: 0.019
Carryover Factor (CF), Ileum [4]: 0.004
Carryover Factor (CF), Jejunum [4]: 0.039
Carryover Factor (CF), Liver [4]: 0.0162
Carryover Factor (CF), Transverse Colon [4]: 0.0065
ZEN Concentrations (x¯ and SD), Ascending Colon [4]: 4.69 ± 0.45 ng/g
ZEN Concentrations (x¯ and SD), Descending Colon [4]: 205.01 ± 94.70 ng/g
ZEN Concentrations (x¯ and SD), Jejunum [4]: 43.82 ± 7.63 ng/g
ZEN Concentrations (x¯ and SD), Transverse Colon [4]: 7.37 ± 1.66 ng/g
Carryover Factor (CF), Ascending Colon [5]: 0.0024
Carryover Factor (CF), Cecum [5]: 0.0129
Carryover Factor (CF), Descending Colon [5]: 0.1264
Carryover Factor (CF), Duodenum [5]: 0.091
Carryover Factor (CF), Ileum [5]: 0.002
Carryover Factor (CF), Jejunum [5]: 0.010
Carryover Factor (CF), Liver [5]: 0.0142
Carryover Factor (CF), Transverse Colon [5]: 0.0046
ZEN Concentrations (x¯ and SD), Cecum [5]: 18.17 ± 5.02 ng/g
ZEN Concentrations (x¯ and SD), Duodenum [5]: 128 ng/g and 128.18 ± 64.54 ng/g
Carryover Factor (CF), Ascending Colon [6]: 0.0014
Carryover Factor (CF), Cecum [6]: 0.0081
Carryover Factor (CF), Descending Colon [6]: 0.0666
Carryover Factor (CF), Duodenum [6]: 0.048
Carryover Factor (CF), Ileum [6]: 0.016
Carryover Factor (CF), Jejunum [6]: 0.005
Carryover Factor (CF), Liver [6]: 0.0136
Carryover Factor (CF), Transverse Colon [6]: 0.0039
ZEN Concentrations (x¯ and SD), Ileum [6]: 27.52 ± 10.28 ng/g
ZEN Concentrations (x¯ and SD), Liver [6]: 23.00 ± 0.79 ng/g
CF, Average values, Ascending Colon (average of Weeks I-VI): 0.0033
CF, Average values, Cecum (average of Weeks I-VI): 0.0089
CF, Average values, Descending Colon (average of Weeks I-VI): 0.0688
CF, Average values, Duodenum (average of Weeks I-VI): 0.0375
CF, Average values, Ileum (average of Weeks I-VI): 0.0091
CF, Average values, Jejunum (average of Weeks I-VI): 0.0233
CF, Average values, Liver (average of Weeks I-VI): 0.0159
CF, Average values, Transverse Colon (average of Weeks I-VI): 0.0054
ZEN concentration, Average values, Ascending Colon (average of Weeks I-VI): 2.805 ng/g
ZEN concentration, Average values, Descending Colon (average of Weeks I-VI): 85.525 ng/g
ZEN concentration, Average values, Duodenum (average of Weeks I-VI): 43.93 ng/g
ZEN concentration, Average values, Ileum (average of Weeks I-VI): 8.705 ng/g
ZEN concentration, Average values, Jejunum (average of Weeks I-VI): 18.208 ng/g
ZEN concentration, Average values, Liver (average of Weeks I-VI): 14.72 ng/g
average ileal concentrations of ZEN (between Week I and Week V): 4.9 ng/g
concentration at 4 weeks (ascending colon, 40 μg/kg BW daily, Week IV of exposure, total ZEN dose 1120 µg/kg BW, read-out: ZEN Concentrations (x¯ and SD), Ascending Colon): 4.7 ng/g
concentration at 5 weeks (ascending colon, 40 μg/kg BW daily, Week V of exposure, total ZEN dose 1400 µg/kg BW, read-out: ZEN Concentrations (x¯ and SD), Ascending Colon): 3.4 ± 0.54 ng/g
concentration at 1 week (ascending colon, 40 μg/kg BW, Week I of exposure, total ZEN dose 280 µg/kg BW, read-out: ZEN Concentrations (x¯ and SD), Ascending Colon): 1.53 ± 1.95 ng/g
concentration at 2 weeks (ascending colon, 40 μg/kg BW, Week II of exposure, total ZEN dose 560 µg/kg BW, read-out: ZEN Concentrations (x¯ and SD), Ascending Colon): 1.59 ± 2.76 ng/g
concentration at 3 weeks (ascending colon, 40 μg/kg BW, Week III of exposure, total ZEN dose 840 µg/kg BW, read-out: ZEN Concentrations (x¯ and SD), Ascending Colon): 3.16 ± 1.79 ng/g
concentration at 6 weeks (ascending colon, 40 μg/kg BW, Week VI of exposure, total ZEN dose 1680 µg/kg BW, read-out: ZEN Concentrations (x¯ and SD), Ascending Colon): 2.46 ± 1.92 ng/g
concentration at 5 weeks (cecum, 40 μg/kg BW daily, Week V of exposure, total ZEN dose 1400 µg/kg BW, read-out: ZEN Concentrations (x¯ and SD), Cecum): 18.2 ng/g
concentration at 6 weeks (cecum, 40 μg/kg BW, Week VI of exposure, total ZEN dose 1680 µg/kg BW, read-out: ZEN Concentrations (x¯ and SD), Cecum): 13.7 ± 1.17 ng/g
concentration at 4 weeks (descending colon, 40 μg/kg BW daily, Week IV of exposure, total ZEN dose 1120 µg/kg BW, read-out: ZEN Concentrations (x¯ and SD), Descending Colon): 205 ng/g
concentration at 5 weeks (descending colon, 40 μg/kg BW daily, Week V of exposure, total ZEN dose 1400 µg/kg BW, read-out: ZEN Concentrations (x¯ and SD), Descending Colon): 177 ± 50.6 ng/g
concentration at 6 weeks (descending colon, 40 μg/kg BW, Week VI of exposure, total ZEN dose 1680 µg/kg BW, read-out: ZEN Concentrations (x¯ and SD), Descending Colon): 112 ± 13.7 ng/g
concentration at 1 week (duodenum, 40 μg/kg BW daily, Week I of exposure, total ZEN dose 280 µg/kg BW, read-out: ZEN Concentrations (x¯ and SD), Duodenum): 8.6 ng/g
concentration at 5 weeks (duodenum, 40 μg/kg BW daily, Week V of exposure, total ZEN dose 1400 µg/kg BW, read-out: ZEN Concentrations (x¯ and SD), Duodenum): 128 ng/g
concentration at 6 weeks (duodenum, 40 μg/kg BW, Week VI of exposure, total ZEN dose 1680 µg/kg BW, read-out: ZEN Concentrations (x¯ and SD), Duodenum): 80.7 ± 4.34 ng/g
concentration at 6 weeks (ileum, 40 μg/kg BW daily, Week VI of exposure, total ZEN dose 1680 µg/kg BW, read-out: ZEN Concentrations (x¯ and SD), Ileum): 27.5 ng/g
concentration at 4 weeks (jejunum, 40 μg/kg BW daily, Week IV of exposure, total ZEN dose 1120 µg/kg BW, read-out: ZEN Concentrations (x¯ and SD), Jejunum): 43.8 ng/g
concentration at 6 weeks (jejunum, 40 μg/kg BW daily, Week VI of exposure, total ZEN dose 1680 µg/kg BW, read-out: ZEN Concentrations (x¯ and SD), Jejunum): 8.3 ng/g
concentration at 4 weeks (liver, 40 μg/kg BW daily, Week IV of exposure, total ZEN dose 1120 µg/kg BW, read-out: ZEN Concentrations (x¯ and SD), Liver): 18.2 ± 5.92 ng/g
concentration at 5 weeks (liver, 40 μg/kg BW daily, Week V of exposure, total ZEN dose 1400 µg/kg BW, read-out: ZEN Concentrations (x¯ and SD), Liver): 20 ± 2.43 ng/g
concentration at 6 weeks (liver, 40 μg/kg BW daily, Week VI of exposure, total ZEN dose 1680 µg/kg BW, read-out: ZEN Concentrations (x¯ and SD), Liver): 23 ng/g
concentration at 3 weeks (liver, 40 μg/kg BW, Week III of exposure, total ZEN dose 840 µg/kg BW, read-out: ZEN Concentrations (x¯ and SD), Liver): 13 ± 1.78 ng/g
concentration at 4 weeks (transverse colon, 40 μg/kg BW daily, Week IV of exposure, total ZEN dose 1120 µg/kg BW, read-out: ZEN Concentrations (x¯ and SD), Transverse Colon): 7.4 ng/g
concentration at 5 weeks (transverse colon, 40 μg/kg BW daily, Week V of exposure, total ZEN dose 1400 µg/kg BW, read-out: ZEN Concentrations (x¯ and SD), Transverse Colon): 6.49 ± 0.96 ng/g
concentration at 2 weeks (transverse colon, 40 μg/kg BW, Week II of exposure, total ZEN dose 560 µg/kg BW, read-out: ZEN Concentrations (x¯ and SD), Transverse Colon): 4.63 ± 3.86 ng/g
concentration at 3 weeks (transverse colon, 40 μg/kg BW, Week III of exposure, total ZEN dose 840 µg/kg BW, read-out: ZEN Concentrations (x¯ and SD), Transverse Colon): 3.94 ± 0.57 ng/g
concentration at 6 weeks (transverse colon, 40 μg/kg BW, Week VI of exposure, total ZEN dose 1680 µg/kg BW, read-out: ZEN Concentrations (x¯ and SD), Transverse Colon): 6.7 ± 0.25 ng/g
